Assay results from patent US7923465B2, “Cannabinoid receptor ligands, pharmaceutical compositions containing them, and process for their preparation” (priority 2005, dated 2011).
Like-named read-outs stand apart in the source and are kept apart here.

How the values were obtained:
[1] = target: hCB2 (Homo sapiens, UniProt P34972); assay: In vitro binding assay using hCB2-CHO membranes, [3H]-CP-55,940 displacement (Protocol IV); set-up: expressed in transfected cells; host or cells: CHO (hCB2-CHO, generated in-house); details: 1 h, read-out: % Displacement Protocol IV
Sequence of hCB2 (P34972 whole entry): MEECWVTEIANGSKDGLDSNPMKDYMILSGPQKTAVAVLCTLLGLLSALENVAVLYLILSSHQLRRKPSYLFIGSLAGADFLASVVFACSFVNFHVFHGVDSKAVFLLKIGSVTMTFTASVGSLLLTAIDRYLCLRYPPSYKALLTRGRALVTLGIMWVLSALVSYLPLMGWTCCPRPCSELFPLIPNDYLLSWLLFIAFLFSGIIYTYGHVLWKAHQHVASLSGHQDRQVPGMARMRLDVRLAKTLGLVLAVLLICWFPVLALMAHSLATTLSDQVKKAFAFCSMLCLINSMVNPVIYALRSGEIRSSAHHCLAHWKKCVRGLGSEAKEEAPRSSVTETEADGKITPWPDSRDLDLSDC
Summary of the method: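 Displacement of [3H]-CP-55,940 (0.75 nM) from membranes of CHO cells expressing human CB2 (25-50 μg) was measured in Tris-BSA buffer pH 7.4 with 5 mM MgCl2, 1 mM EDTA, 0.1% BSA, 1 h at 30 °C. Test compounds were at 300 nM final; nonspecific binding defined with 0.5 μM CP-55,940. Values are % displacement of specific binding.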

[2] = target: CB1 (Rattus norvegicus, UniProt P20272); assay: Rat CB1 receptor binding using brain membrane, [3H]SR141716A displacement (Protocol I); set-up: CB1 receptor present in a rat brain membrane preparation; from tissue; host or cells: rat brain membrane; inhibition: dose or concentration left out as unconfirmed; details: 1 h
Sequence of CB1 (P20272 whole entry): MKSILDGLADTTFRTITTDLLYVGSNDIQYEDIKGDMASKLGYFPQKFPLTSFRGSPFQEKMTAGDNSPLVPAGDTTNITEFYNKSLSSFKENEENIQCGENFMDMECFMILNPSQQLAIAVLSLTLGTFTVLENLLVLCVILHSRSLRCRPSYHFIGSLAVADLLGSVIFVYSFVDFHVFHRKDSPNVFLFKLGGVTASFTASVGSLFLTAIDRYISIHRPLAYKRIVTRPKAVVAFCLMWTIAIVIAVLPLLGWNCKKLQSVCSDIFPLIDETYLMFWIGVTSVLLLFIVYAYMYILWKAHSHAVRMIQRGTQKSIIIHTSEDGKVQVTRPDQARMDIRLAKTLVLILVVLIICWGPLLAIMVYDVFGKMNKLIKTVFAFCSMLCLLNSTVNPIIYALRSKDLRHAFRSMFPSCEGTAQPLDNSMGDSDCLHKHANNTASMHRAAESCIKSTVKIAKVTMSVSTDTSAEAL
Procedure: I. In Vitro Protocol for Rat CB1 Receptor Binding Using Brain Membrane
In this assay, [^3H]SR141716A (5-(4-chlorophenyl)-1-(2,4-dichlorophenyl)-4-methyl-N-(1-piperidyl)pyrazole-3-carboxamide) was used to bind the CB1 receptor present in a rat brain membrane preparation which can be displaced by unlabeled ligands having affinity to the CB1 receptor.
The assay was performed according to the modified method of Thomas et al., 1998 (JPET 285: 285-292). The total reaction mixture ([…]) contained Tris-BSA buffer (50 mM Tris, pH 7.4 with 1.5% BSA) or unlabeled SR141716A […] or test samples […], [^3H] SR141716A (2 nM) and […] of rat brain membrane. The non-specific binding was defined by […] of SR141716A. The assay mixture was incubated at 37° C. for 1 hour. The reaction was then stopped by rapid filtration under vacuum using Whatman GF/B-96 micro filter plate. A scintillation cocktail was added and radioactive counts were measured using a Topcount beta scintillation counter.
The standard and test sample dilutions were made in an assay buffer containing either ethanol or DMSO at a final concentration of 1%.
The percent (%) displacement by a test ligand was calculated by comparing the specific bound values.

[3] = hCB2-CHO membranes, [3H]-CP-55,940 displacement
[4] = rat brain membrane, [3H]SR141716A displacement, read-out: % Displacement Protocol I

O=C(Nc1ccccc1)c1nn(-c2ccc(Cl)cc2)c2c1C1CCC2C1 (stereo not drawn) [Example 214, N(3)-Phenyl-1-(4-chlorophenyl)-4,5,6,7-tetrahydro-1H-4,7-methano-indazole-3-carboxamide]
inhibition at 0.3 µM [1, 3]: 41.3% | melting point: 137 to 140 °C | inhibition [2, 4]: 10.1%

O=C(NNc1ccc(Cl)cc1)c1nn(-c2ccc(Cl)cc2Cl)c2c1C1CCC2C1 (stereo not drawn) [Example 259, N(3)-[(4-Chlorophenyl)amino]-1-(2,4-dichlorophenyl)-4,5,6,7-tetrahydro-1H-4,7-methano-indazole-3-carboxamide]
inhibition at 0.3 µM [1, 3]: 33.3% | melting point: 141 to 144 °C | inhibition [2, 4]: 18.3%

O=C(NCC1CCCCC1)c1nn(-c2ccc(Cl)cc2)c2c1C1CC3CC(C1)CC2C3 [Example 108, N(7)-Cyclohexylmethyl-5-(4-chlorophenyl)-5,6-diazatetracyclo[7.3.1.1^3,11.0^4,8]tetradeca-4(8),6-diene-7-carboxamide]
inhibition at 0.3 µM [1, 3]: 37.1% | melting point: 117 °C | inhibition [2, 4]: 82.5%

O=C(NCc1ccccn1)c1nn(-c2ccc(Cl)cc2)c2c1C1CC3CC(C1)CC2C3 [Example 120, N(7)-(2-Pyridylmethyl)-5-(4-chlorophenyl)-5,6-diazatetracyclo[7.3.1.1^3,11.0^4,8]tetradeca-4(8),6-diene-7-carboxamide]
inhibition at 0.3 µM [1, 3]: 9.18% | melting point: 187 °C | inhibition [2, 4]: 30.4%

O=C(NNc1ccc(Cl)cc1Cl)c1nn(-c2ccc(Cl)cc2Cl)c2c1C1CC3CC(C1)CC2C3 [Example 175, N(7)-(2,4-Dichlorophenylamino)-5-(2,4-dichlorophenyl)-5,6-diazatetracyclo[7.3.1.1^3,11.0^4,8]tetradeca-4(8),6-diene-7-carboxamide]
inhibition at 0.3 µM [1, 3]: 18.5% | melting point: 153 to 156 °C | inhibition [2, 4]: 66%

O=C(NN1CCCCC1)c1nn(-c2ccc(Br)cc2)c2c1C1CCC2C1 (stereo not drawn) [Example 274, N(3)-Piperidino-1-(4-bromophenyl)-4,5,6,7-tetrahydro-1H-4,7-methano-indazole-3-carboxamide]
inhibition at 0.3 µM [1, 3]: 35.4% | melting point: 173 °C | inhibition [2, 4]: 25.7%

O=C(NNc1ccc(Cl)cn1)c1nn(-c2ccc(Cl)cc2)c2c1C1CC3CC(C1)CC2C3 [Example 135, N(7)-(5-Chloro-2-pyridylamino)-5-(4-chlorophenyl)-5,6-diazatetracyclo[7.3.1.1^3,11.0^4,8]tetradeca-4(8),6-diene-7-carboxamide]
inhibition at 0.3 µM [1, 3]: 6.48% | melting point: 130 to 135 °C | inhibition [2, 4]: 20.5%

O=C(NNc1ccccc1)c1n[nH]c2c1C1(c3ccccc3)CCC2C1 (stereo not drawn) [Example 204, N(3)-Phenylamino-4-phenyl-4,5,6,7-tetrahydro-1H-4,7-methano-indazole-3-carboxamide]
inhibition at 0.3 µM [1, 3]: 10.5% | melting point: 189 °C | inhibition [2, 4]: -10.3%

O=C(NN1CCCCC1)c1nn(-c2ccccc2Br)c2c1C1CCC2C1 (stereo not drawn) [Example 270, N(3)-Piperidino-1-(2-bromophenyl)-4,5,6,7-tetrahydro-1H-4,7-methano-indazole-3-carboxamide]
inhibition at 0.3 µM [1, 3]: 8.62% | melting point: 236 °C | inhibition [2, 4]: -14.6%

O=C(NCc1ccccc1)c1nn(-c2ccc(Cl)cc2)c2c1C1CCC2C1 (stereo not drawn) [Example 220, N(3)-Benzyl-1-(4-chlorophenyl)-4,5,6,7-tetrahydro-1H-4,7-methano-indazole-3-carboxamide]
inhibition at 0.3 µM [1, 3]: 25.3% | melting point: 112 to 115 °C | inhibition [2, 4]: 29.5%

O=C(NCc1ccccc1)c1nn(-c2ccccc2Br)c2c1C1CCC2C1 (stereo not drawn) [Example 272, N(3)-Benzyl-1-(2-bromophenyl)-4,5,6,7-tetrahydro-1H-4,7-methano-indazole-3-carboxamide]
inhibition at 0.3 µM [1, 3]: 18.4% | melting point: 110 °C | inhibition [2, 4]: -4.5%

O=C(Nc1ccc(Cl)cc1)c1nn(-c2ccc(Cl)cc2)c2c1C1CCC2C1 (stereo not drawn) [Example 216, N(3)-(4-Chlorophenyl)-1-(4-chlorophenyl)-4,5,6,7-tetrahydro-1H-4,7-methano-indazole-3-carboxamide]
inhibition at 0.3 µM [1, 3]: 20.7% | melting point: 182 to 184 °C | inhibition [2, 4]: 32.2%

O=C(Nn1cnnc1)c1nn(-c2ccc(Cl)cc2Cl)c2c1C1CCC2C1 (stereo not drawn) [Example 240, N(3)-(4H-1,2,4-triazol-4-yl)-1-(2,4-dichlorophenyl)-4,5,6,7-tetrahydro-1H-4,7-methano-indazole-3-carboxamide]
inhibition at 0.3 µM [1, 3]: 7.98% | melting point: 231 to 233 °C | inhibition [2, 4]: 1.5%

O=C(NC1CCCCC1)c1nn(-c2ccccc2Br)c2c1C1CCC2C1 (stereo not drawn) [Example 271, N(3)-Cyclohexyl-1-(2-bromophenyl)-4,5,6,7-tetrahydro-1H-4,7-methano-indazole-3-carboxamide]
inhibition at 0.3 µM [1]: 46% | melting point: 178 °C | inhibition ([2]; read-out: % Displacement Protocol I, rat brain membrane, [3H]SR141716A displacement): 11.7%

O=C(NNc1ccccc1)c1nn(-c2ccccc2Cl)c2c1C1CCC2C1 (stereo not drawn) [Example 208, N(3)-Phenylamino-1-(2-chlorophenyl)-4,5,6,7-tetrahydro-1H-4,7-methano-indazole-3-carboxamide]
inhibition at 0.3 µM [1, 3]: 0% | melting point: 205 °C | inhibition [2, 4]: -1.2%

O=C(NN1CCCCC1)c1nn(-c2ccccc2)c2c1C1CCC2C1 (stereo not drawn) [Example 201, N(3)-Piperidino-1-phenyl-4,5,6,7-tetrahydro-1H-4,7-methano-indazole-3-carboxamide]
inhibition at 0.3 µM [1, 3]: 19.8% | melting point: 144 °C | inhibition [2, 4]: 9%

O=C(NN(c1ccc(Cl)cc1Cl)C1CCCCC1)c1nn(-c2ccc(Cl)cc2)c2c1C1CC3CC(C1)CC2C3 [Example 129, N(7)-(2,4-Dichlorophenyl-N′-cyclohexylamino)-5-(4-chlorophenyl)-5,6-diazatetracyclo[7.3.1.1^3,11.0^4,8]tetradeca-4(8),6-diene-7-carboxamide]
inhibition at 0.3 µM [1, 3]: 62.9% | melting point: 95 to 96 °C | inhibition [2, 4]: 65.2%

O=C(NNc1ccc(Cl)cc1Cl)c1nn(-c2ccccc2)c2c1C1CC3CC(C1)CC2C3 [Example 167, N(7)-[(2,4-Dichlorophenyl)amino]-5-phenyl-5,6-diazatetracyclo[7.3.1.1^3,11.0^4,8]tetradeca-4(8),6-diene-7-carboxamide]
inhibition at 0.3 µM [1, 3]: 24.6% | melting point: 166 to 170 °C | inhibition [2, 4]: 61.3%

O=C(NN1CCOCC1)c1nn(-c2ccc(Cl)cc2)c2c1C1CC3CC(C1)CC2C3 [Example 103, N(7)-Morpholino-5-(4-chlorophenyl)-5,6-diazatetracyclo[7.3.1.1^3,11.0^4,8]tetradeca-4(8),6-diene-7-carboxamide]
inhibition at 0.3 µM [1, 3]: 6.99% | melting point: 220 °C | inhibition [2, 4]: 22.2%

O=C(NN1CCCCC1)c1nn(-c2ccccc2Cl)c2c1C1CCC2C1 (stereo not drawn) [Example 205, N(3)-Piperidino-1-(2-chlorophenyl)-4,5,6,7-tetrahydro-1H-4,7-methano-indazole-3-carboxamide]
inhibition at 0.3 µM [1, 3]: 15.9% | melting point: 232 °C | inhibition [2, 4]: -12.7%

O=C(NNc1ccccc1Br)c1nn(-c2ccc(Cl)cc2Cl)c2c1C1CC3CC(C1)CC2C3 [Example 176, N(7)-(2-Bromophenylamino)-5-(2,4-dichlorophenyl)-5,6-diazatetracyclo[7.3.1.1^3,11.0^4,8]tetradeca-4(8),6-diene-7-carboxamide]
inhibition at 0.3 µM [1, 3]: 30.5% | melting point: 196 to 199 °C | inhibition [2, 4]: 65.6%
